# Data published in patent US10054581B1, “Inhibitors of notch signaling pathway and use thereof in treatment of cancers” (Ecole Polytechnique Federale de Lausanne (EPFL), priority 2011, dated 2018).
# “Also recorded” adds a separate entry of the source.
# Assays:
# [1] = system: HPB ALL; experiment: Annexin V apoptosis, HPB ALL; type: cell-based, human; settings: 10 μM, 7 days
# Procedure: (§1) FIGS. 6A-6D show 6-(4-Tert-Butylphenoxy)Pyridin-3-Amine (I3) induces G0/G1 cell cycle arrest and apoptosis in human T cell acute lymphoblastic leukemia cell lines and human breast cancer cell line HCC1187. […] Percentage of Annexin V positive (apoptotic) cell population was measured using flow cytometry.
# (§2) To quantitate the percentage of apoptotic cells, AnnexinV and 7AAD staining was performed. Thymic cells were suspended in 300 μl of 1× AnnexinV binding buffer (BD Biosciences, San Diego, USA) and incubated with 10 μl of AnnexinV-Cy5 antibody and 10 μl of 7AAD (BD Biosciences, San Diego, USA). Samples were incubated for 15 minutes at room temperature. FACS was performed with in one hour of antibody staining.
# (§3) This 6-(4-Tert-Butylphenoxy)Pyridin-3-Amine (I3) mediated proliferative arrest could be due to induction of apoptosis or cell cycle arrest during different phases of cell cycle. […] Therefore to further elucidate the mechanisms responsible for 6-(4-Tert-Butylphenoxy)Pyridin-3-Amine (I3) mediated proliferative arrest cell cycle and apoptosis analyses were carried out. […] To investigate cell death, Annexin V staining was performed and proportion of apoptotic (AnnexinV positive) cell population was determined by flow cytometry analyses after 7 days of treatment.
# [2] = system: TALL1; experiment: Annexin V apoptosis, TALL1; type: cell-based, human; settings: 10 μM, 7 days
# Procedure: as §1, §2, §3
# [3] = system: nRas driven melanoma cell lines; experiment: Alamar blue proliferation assay, nRas driven melanoma cells; type: cell-based, human; settings: 10 μM, 4 days
# Procedure: Human T-ALL cell lines RPMI 8402 and KOPTK1, and pancreatic cancer cell line PANC1 as well as nRas driven melanoma cells were seeded in a 96 well plate and treated with 10 μM concentration of 6-(4-Tert-Butylphenoxy)Pyridin-3-Amine (I3) and DAPT for several days. Their growth inhibitory effects were compared with cells treated with equal amount of DMSO. Using Alamar blue assay, the growth kinetics of RPMI 8402 and KOPTK1 were followed for upto 6 days, while PANC1 and nRas melanoma cells were monitored for 4 days. 6-(4-Tert-Butylphenoxy)Pyridin-3-Amine (I3) treatment of RPMI 8402, KOPTK1. […] Statistical analyses were done using student's t.test. *=p value<0.05. ns=not significant.
# Alamarblue® proliferation assays were performed to determine the growth kinetics of Notch inhibitor treated cells. Alamar Blue® consists of a cell permeable substrate resazurin. In metabolically active and proliferating cells, resazurin is converted to resorufin due to an intrinsic reducing power of live cells and produces a red fluorescence. Therefore production of resorufin serves as an indicator of the viability of the cell population.
# Proliferation assays were performed by seeding 5000 cells/well in a 96 well plate. Cells were treated with DMSO or Notch inhibitors for different time intervals. […] Alamarblue readout was taken using Tecan F500 (Tecan) multiplate reader. […]
# [4] = system: HPB ALL leukemic cells; experiment: HPB ALL xenotransplantation in NOD/SCID γc−/− mice; type: in vivo, human; settings: 25 mg/kg daily from around day 15, imaged day 27
# Procedure: FIGS. 8A-8B show 6-(4-Tert-Butylphenoxy)Pyridin-3-Amine (I3) treatment increases latency of leukemia development in mice. […] On day 15, leukemic cells were established in the bone marrow. Mice were treated with oil or 6-(4-Tert-Butylphenoxy)Pyridin-3-Amine (I3) for every day. Mice were imaged on day 27 using Caliper IVIS (Xenogen) live imaging system. Red and blue colour indicates the intensity of luciferase signal and correlates with the number of leukemic cells. […] NOD/SCID γc^−/− mice were transplanted with 5×10^5 RPMI 8402 (luciferase expressing) cells. Leukemia development was followed using Caliper IVIS (Xenogen) live imaging system. On day […], a daily treatment was started using oil (n=3) or 6-(4-Tert-Butylphenoxy)Pyridin-3-Amine (I3) (n=4). Animals were treated for 27 days (end point of the experiment).
# The human leukemic cell lines RPMI 8402 and HPB ALL were transduced with a lentivirus containing luciferase gene constitutively expressed downstream of a CMV promoter. […] Mice were monitored for tumor development using Caliper IVIS (Xenogen) live imaging system. […]
# This allowed Applicants to visualize and monitor the leukemia progression in the mice using the Caliper IVIS (Xenogen) live imaging detection system. […] Mice were monitored for leukemia development by detecting luciferase expressing leukemic cells. […]
smiles,measurement,setting,value
"CC(C)(C)c1ccc(Oc2ccc(N)cn2)cc1 [I3, 6-(4-Tert-Butylphenoxy)Pyridin-3-Amine]",apoptosis (Annexin V positive cells),[1],induces significant apoptosis
same,apoptosis (Annexin V positive cells),[2],induces significant apoptosis
same,proliferation (Alamar blue),[3],significantly inhibited the growth; also recorded: caused a significant reduction in their growth potential
same,leukemia progression (luciferase live imaging),[4],did not progress at the same rate as in the oil treated group
